# Test results: patent US20220040115A1, “PHARMACEUTICAL COMPOSITIONS AND DELIVERY SYSTEMS FOR PREVENTION AND TREATMENT OF CANDIDIASIS” (INDIAN INSTITUTE OF TECHNOLOGY HYDERABAD, priority 2018, published 2022)
# Key:
# Candida albicans [1] = test: Antifungal activity (zone of inhibition) of microcapsules and bacterial cellulose loaded microcapsules; format: cell-based
# Excerpt: The anti-fungal activity of the microcapsules and cellulosic matrices were checked for inhibition of Candida albicans. The studies are depicted in FIG. 15, FIG. 16, FIG. 17 and FIG. 18.
# Candida albicans [2] = test: Inhibition zone test of oil compositions on Candida albicans (Example 1); format: cell-based; design: unit not given here
# Procedure: Different two-oil and three-oil compositions with varying ratios were prepared in order to check the performance of the oils for inhibition of Candida albicans. Fluconazole and saline were used as positive and negative controls, respectively.
Structure (SMILES),Zone of inhibition (Candida albicans [1]; 24 hrs),Zone of inhibition (Candida albicans [1]; 48 hrs),Zone of inhibition (Candida albicans [1]; 72 hrs),"Inhibition zone diameter (Candida albicans [2]; 200 μg, time period 24 hrs)","Inhibition zone diameter (Candida albicans [2]; 200 μg, time period 48 hrs)","Inhibition zone diameter (Candida albicans [2]; 200 μg, time period 72 hrs)","Inhibition zone diameter (Candida albicans [2]; volume 50 μL, 24 hrs)","Inhibition zone diameter (Candida albicans [2]; volume 100 μL, 24 hrs)","Inhibition zone diameter (Candida albicans [2]; volume 150 μL, 24 hrs)","Inhibition zone diameter (Candida albicans [2]; volume 200 μL, 24 hrs)"
OC(Cn1cncn1)(Cn1cncn1)c1ccc(F)cc1F [Fluconazole],3.5 ± 0.1,1.8 ± 0.1,1.5 ± 0.1,5.3,4.5,3.4,–,–,–,–
"Cc1ccc(C(C)C)c(O)c1 [Thymol, 2-isopropyl-5-methylphenol]",–,–,–,–,–,–,2.5,3.1,3.9,4.2
"C=CCc1ccc(O)c(OC)c1 [Eugenol, 2-Methoxy-4-(prop-2-en-1-yl) phenol]",–,–,–,–,–,–,2.0,3.5,4.1,4.3
"Cc1ccc(C(C)C)cc1O [Carvacrol, 5-Isopropyl-2-methylphenol]",–,–,–,–,–,–,3.2,3.8,4.5,5.1
